Results from patent US9556179B2 (BRISTOL-MYERS SQUIBB COMPANY, priority 2012, dated 2017).

Assays:
CK1ε = CK1ε (Homo sapiens (Human), UniProt P49674); test: CK1ε kinase assay (Caliper LABCHIP electrophoretic separation of fluoresceinated peptide substrate and product); format: biochemical; details: 200 pM enzyme, 50 μM ATP, 22 hours at room temperature
Outline: (§1)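 Incubated for twenty-two hours at ambient temperature, then quenched with EDTA and analyzed by electrophoretic separation of unphosphorylated and phosphorylated peptide.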

CK1δ = CK1δ (Homo sapiens (Human), UniProt P48730); test: CK1δ kinase assay (Caliper LABCHIP electrophoretic separation of fluoresceinated peptide substrate and product); format: biochemical; details: 200 pM enzyme, 50 μM ATP, 22 hours at room temperature
Outline: as §1

Sequence of CK1δ (P48730 whole entry): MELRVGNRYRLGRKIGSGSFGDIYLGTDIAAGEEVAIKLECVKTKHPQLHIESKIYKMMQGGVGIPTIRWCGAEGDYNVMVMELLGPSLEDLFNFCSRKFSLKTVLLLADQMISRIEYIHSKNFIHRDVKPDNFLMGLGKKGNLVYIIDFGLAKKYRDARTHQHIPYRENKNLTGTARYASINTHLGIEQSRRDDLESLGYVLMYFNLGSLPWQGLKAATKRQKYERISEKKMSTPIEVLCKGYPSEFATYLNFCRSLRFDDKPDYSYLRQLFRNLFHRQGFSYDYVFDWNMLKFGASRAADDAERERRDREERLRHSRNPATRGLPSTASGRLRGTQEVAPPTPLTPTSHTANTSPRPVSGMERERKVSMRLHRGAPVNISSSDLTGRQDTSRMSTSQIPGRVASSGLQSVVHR
Sequence of CK1ε (P49674 whole entry): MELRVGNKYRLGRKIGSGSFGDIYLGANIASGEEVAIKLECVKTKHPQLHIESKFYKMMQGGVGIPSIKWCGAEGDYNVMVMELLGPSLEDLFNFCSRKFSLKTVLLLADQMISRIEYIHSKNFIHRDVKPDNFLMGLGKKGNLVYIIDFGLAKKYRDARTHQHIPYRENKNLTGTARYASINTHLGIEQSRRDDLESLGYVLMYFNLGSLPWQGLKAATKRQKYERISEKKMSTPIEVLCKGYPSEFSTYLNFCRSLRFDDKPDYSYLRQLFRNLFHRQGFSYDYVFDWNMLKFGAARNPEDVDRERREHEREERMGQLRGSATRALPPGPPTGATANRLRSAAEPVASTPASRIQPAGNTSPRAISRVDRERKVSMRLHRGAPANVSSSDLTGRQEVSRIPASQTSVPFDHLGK

Row | IC50 (CK1ε) [nM] | IC50 (CK1δ) [nM] | SMILES
1 | 19.6 | 8.38 | Cc1nc(-c2ccc(F)cc2)c(-c2ccc3nc(NC(=O)c4ccc5ncccc5n4)cn3n2)n1C [Compound 312, N-(6-(4-(4-fluorophenyl)-1,2-dimethyl-1H-imidazol-5-yl)imidazo[1,2-b]pyridazin-2-yl)-1,5-naphthyridine-2-carboxamide]
2 | 1.1 | 0.225 | COCC(=O)N1CCC(n2cnc(-c3ccc(F)cc3)c2-c2ccc3nc(NC(=O)c4ccnc(F)c4)cn3n2)CC1 [Compound 47, 2-fluoro-N-(6-(4-(4-fluorophenyl)-1-(1-(2-methoxyacetyl)piperidin-4-yl)-1H-imidazol-5-yl)imidazo[1,2-b]pyridazin-2-yl)isonicotinamide]
3 | 1.92 | 0.467 | O=C(Nc1cn2nc(-c3c(-c4ccc(F)cc4)ncn3C3CCN(CCC(F)(F)F)CC3)ccc2n1)c1ccnc(N2CCOCC2)c1 [Compound 107, N-(6-(4-(4-fluorophenyl)-1-(1-(3,3,3-trifluoropropyl)piperidin-4-yl)-1H-imidazol-5-yl)imidazo[1,2-b]pyridazin-2-yl)-2-morpholinoisonicotinamide]
4 | 0.182 | 0.194 | O=C(Nc1cn2nc(-c3c(-c4ccc(F)cc4)ncn3C3CCN(C[C@H](O)C(F)(F)F)CC3)ccc2n1)c1cncs1 [Compound 118, (S)—N-(6-(4-(4-fluorophenyl)-1-(1-(3,3,3-trifluoro-2-hydroxypropyl)piperidin-4-yl)-1H-imidazol-5-yl)imidazo[1,2-b]pyridazin-2-yl)thiazole-5-carboxamide]
5 | 9.93 | 0.587 | O=C(Nc1cn2nc(-c3c(-c4ccc(F)cc4)ncn3C3CNC3)ccc2n1)c1ccncc1 [Compound 157, N-(6-(1-(azetidin-3-yl)-4-(4-fluorophenyl)-1H-imidazol-5-yl)imidazo[1,2-b]pyridazin-2-yl)isonicotinamide]
6 | 4.23 | 0.545 | CC(C)(C)C(=O)Nc1cn2nc(-c3c(-c4ccc(F)cc4)ncn3Cc3ccccc3)ccc2n1 [Compound 275, N-(6-(1-benzyl-4-(4-fluorophenyl)-1H-imidazol-5-yl)imidazo[1,2-b]pyridazin-2-yl)pivalamide]
7 | 2.5 | 0.3 | CS(=O)(=O)N1CCn2c(nc(-c3ccc(F)cc3)c2-c2ccc3nc(NC(=O)c4ccnc(F)c4)cn3n2)C1 [Compound 476, 2-Fluoro-N-(6-(2-(4-fluorophenyl)-7-(methylsulfonyl)-5,6,7,8-tetrahydroimidazo[1,2-a]pyrazin-3-yl)imidazo[1,2-b]pyridazin-2-yl)isonicotinamide]
8 | 8.1 | 1.1 | CC(C)(O)C(=O)N1CCn2c(nc(-c3ccc(F)cc3)c2-c2ccc3nc(NC(=O)c4ccnc(F)c4)cn3n2)C1 [Compound 470, 2-Fluoro-N-(6-(2-(4-fluorophenyl)-7-(2-hydroxy-2-methylpropanoyl)-5,6,7,8-tetrahydroimidazo[1,2-a]pyrazin-3-yl)imidazo[1,2-b]pyridazin-2-yl)isonicotinamide]
9 | 4.5 | 0.5 | CC1(NC(=O)N2CCn3c(nc(-c4ccc(F)cc4)c3-c3ccc4nc(NC(=O)c5ccnc(F)c5)cn4n3)C2)CC1 [Compound 485, 3-(2-(2-Fluoroisonicotinamido)imidazo[1,2-b]pyridazin-6-yl)-2-(4-fluorophenyl)-N-(1-methylcyclopropyl)-5,6-dihydroimidazo[1,2-a]pyrazine-7(8H)-carboxamide]
10 | 8.9 | 0.514 | N#CCCN1CCC(n2c(C3CC3)nc(-c3ccc(F)cc3)c2-c2ccc3nc(NC(=O)c4cccc(-c5cccnc5)c4)cn3n2)CC1 [Compound 136, N-(6-(1-(1-(2-cyanoethyl)piperidin-4-yl)-2-cyclopropyl-4-(4-fluorophenyl)-1H-imidazol-5-yl)imidazo[1,2-b]pyridazin-2-yl)-3-(pyridin-3-yl)benzamide]
11 | 1.45 | 0.249 | Cc1nc(-c2ccc(F)cc2)c(-c2ccc3nc(NC(=O)c4cccc5ccncc45)cn3n2)n1C [Compound 331, N-(6-(4-(4-fluorophenyl)-1,2-dimethyl-1H-imidazol-5-yl)imidazo[1,2-b]pyridazin-2-yl)-8-isoquinoline-carboxamide]
12 | 1.5 | 0.3 | O=C(Nc1cn2nc(-c3c(-c4ccc(F)cc4)nc4ccc(N5CCOCC5)cn34)ccc2n1)c1ccnc(F)c1 [Compound 452, 2-Fluoro-N-(6-(2-(4-fluorophenyl)-6-morpholinoimidazo[1,2-a]pyridin-3-yl)imidazo[1,2-b]pyridazin-2-yl)isonicotinamide]
13 | 7.62 | 0.545 | Cn1cnc(-c2ccc(F)cc2)c1-c1ccc2nc(NC(=O)C(C)(C)C)cn2n1 [Compound 283, N-(6-(4-(4-fluorophenyl)-1-methyl-1H-imidazol-5-yl)imidazo[1,2-b]pyridazin-2-yl)pivalamide]
14 | 8.1 | 0.7 | CC(C)OC(=O)N1CCn2c(nc(-c3ccc(F)cc3)c2-c2ccc3nc(NC(=O)c4ccnc(F)c4)cn3n2)C1 [Example 475]
15 | 11.4 | 0.734 | O=C(Nc1cn2nc(-c3c(-c4ccc(F)cc4)nc4ccccn34)ccc2n1)C1CCOCC1 [Compound 220, N-(6-(2-(4-fluorophenyl)imidazo[1,2-a]pyridin-3-yl)imidazo[1,2-b]pyridazin-2-yl)tetrahydro-2H-pyran-4-carboxamide]
16 | 5.29 | 0.714 | Cc1cc(-c2nc(C)n(C)c2-c2ccc3nc(NC(=O)c4ccnc(F)c4)cn3n2)ccc1F [Compound 298, 2-fluoro-N-(6-(4-(4-fluoro-3-methylphenyl)-1,2-dimethyl-1H-imidazol-5-yl)imidazo[1,2-b]pyridazin-2-yl)isonicotinamide]
17 | 48.5 | 3.44 | Cc1nc(-c2ccc(F)cc2)c(-c2ccc3nc(NC(=O)c4coc(-c5ccncc5)n4)cn3n2)n1C [Compound 304, N-(6-(4-(4-fluorophenyl)-1,2-dimethyl-1H-imidazol-5-yl)imidazo[1,2-b]pyridazin-2-yl)-2-(pyridin-4-yl)oxazole-4-carboxamide]
18 | 1.58 | 0.197 | N#CCCN1CCC(n2cnc(-c3ccc(F)cc3)c2-c2ccc3nc(NC(=O)c4ccnc(F)c4)cn3n2)CC1 [Compound 36, N-(6-(1-(1-(2-cyanoethyl)piperidin-4-yl)-4-(4-fluorophenyl)-1H-imidazol-5-yl)imidazo[1,2-b]pyridazin-2-yl)-2-fluoroisonicotinamide]
19 | 2.2 | 0.507 | Cc1nc(-c2ccc(F)cc2)c(-c2ccc3nc(NC(=O)c4ccc5ncccc5c4)cn3n2)n1C [Compound 336, N-(6-(4-(4-fluorophenyl)-1,2-dimethyl-1H-imidazol-5-yl)imidazo[1,2-b]pyridazin-2-yl)-6-quinolinecarboxamide]
20 | 1.86 | 0.274 | Cc1nc(-c2ccc(F)cc2)c(-c2ccc3nc(NC(=O)c4ccnc(F)c4)cn3n2)n1C [Compound 320, 2-fluoro-N-(6-(4-(4-fluoro-phenyl)-1,2-dimethyl-1H-imidazol-5-yl)imidazo[1,2-b]pyridazin-2-yl)isonicotin-amide]
21 | 1.8 | 0.3 | O=C(Nc1cn2nc(-c3c(-c4ccc(F)cc4)ncn3C3CCOCC3)ccc2n1)c1ccncc1 [Compound 434, N-(6-(4-(4-Fluorophenyl)-1-(tetrahydro-2H-pyran-4-yl)-1H-imidazol-5-yl)imidazo[1,2-b]pyridazin-2-yl)isonicotinamide]
22 | 4.5 | 0.6 | O=C(Nc1cn2nc(-c3c(-c4ccc(F)cc4)nc4n3CCN(C(=O)C3(C(F)(F)F)CC3)C4)ccc2n1)c1ccnc(F)c1 [Compound 472, 2-Fluoro-N-(6-(2-(4-fluorophenyl)-7-(1-(trifluoromethyl)cyclopropanecarbonyl)-5,6,7,8-tetrahydroimidazo[1,2-a]pyrazin-3-yl)imidazo[1,2-b]pyridazin-2-yl)isonicotinamide]
23 | 1.4 | 0.362 | NS(=O)(=O)CCCn1cnc(-c2ccc(F)cc2)c1-c1ccc2nc(NC(=O)c3ccnc(F)c3)cn2n1 [Compound 241]
24 | 1.61 | 0.187 | Cc1nc(-c2ccc(F)cc2)c(-c2ccc3nc(NC(=O)c4ccc5cnccc5c4)cn3n2)n1C [Compound 339, N-(6-(4-(4-fluorophenyl)-1,2-dimethyl-1H-imidazol-5-yl)imidazo[1,2-b]pyridazin-2-yl)isoquinoline-6-carboxamide]
25 | 1.56 | 0.191 | O=C(Nc1cn2nc(-c3c(-c4ccc(F)cc4)ncn3C3CCN(C(=O)c4ccc(F)cc4)CC3)ccc2n1)c1ccnc(F)c1 [Compound 53, 2-fluoro-N-(6-(1-(1-(4-fluorobenzoyl)piperidin-4-yl)-4-(4-fluorophenyl)-1H-imidazol-5-yl)imidazo[1,2-b]pyridazin-2-yl)isonicotinamide]
26 | 1.78 | 0.28 | O=C(Nc1cn2nc(-c3c(-c4ccc(F)cc4)ncn3C3CCN(Cc4cc[nH]n4)CC3)ccc2n1)c1ccnc(F)c1 [Compound 20, N-(6-(1-(1-((1H-pyrazol-3-yl)methyl)piperidin-4-yl)-4-(4-fluorophenyl)-1H-imidazol-5-yl)imidazo[1,2-b]pyridazin-2-yl)-2-fluoroisonicotinamide]
27 | 2.02 | 0.384 | Cc1nc(-c2ccc(F)cc2)c(-c2ccc3nc(NC(=O)c4ccnc(F)c4)cn3n2)n1CC(F)F [Compound 284, N-(6-(1-(2,2-Difluoroethyl)-4-(4-fluorophenyl)-2-methyl-1H-imidazol-5-yl)imidazo[1,2b]-pyridazin-2-yl)-2-fluoroisonicotinamide]
28 | 18.1 | 2.35 | N#Cc1cccc(-c2cccc(C(=O)Nc3cn4nc(-c5c(-c6ccc(F)cc6)nc6ccccn56)ccc4n3)c2)c1 [Compound 207, 3′-cyano-N-(6-(2-(4-fluorophenyl)imidazo[1,2-a]pyridin-3-yl]imidazo[1,2-b]pyridazin-2-yl)-[1,1′-biphenyl]-3-carboxamide]
